From patent US6784165B1, “Treatment of heart rhythm disturbances with N6-substituted-5′-(N-substituted) carboxamidoadenosines” (Aderis Pharmaceuticals, Inc., priority 1999, dated 2004)
Like-named read-outs stand apart in the source and are kept apart here. Each block holds one compound with its values, some of them ahead of it.

What was measured:
[1] = Oral bioavailability estimated from bradycardia AUC oral vs intravenous in conscious rats; assay type: in vivo, rat; conditions: for bioavailability: male, Sprague-Dawley, rat, in vivo
Description: (§1) Concentration dose-effect curve data were fitted to a sigmoid curve using Graphpad PRIZM™ software to obtain the concentration or dose of test compound that produces 50% of the maximal obtainable response, in vitro EC50 or in vivo ED50 values, for activation of the adenosine A1 receptor. Responses measured to each dose were the plateau negative inotropic response to cumulative additions of test compound in the isolated left atria and the peak bradycardia in response to bolus intravenous injections of test compound in conscious rats. Oral bioavailability was estimated from pharmacodynamic responses using the expression: (Response AUCoral/Response AUCiv)(Doseiv/Doseoral), where Response AUC is the area under the curve for test compound-induced bradycardia over time.
(§2) Male Sprague-Dawley rats were anesthetized with sodium pentobarbital 50 mg/kg i.p., and indwelling catheters were surgically implanted in the carotid artery and jugular vein two days prior to each experiment. During all subsequent experiments, rats were conscious and unrestrained. The carotid artery cannula was attached to a pressure transducer and blood pressure was recorded continuously throughout each experiment using a Grass polygraph. Heart rate was derived from the blood pressure signal using a Grass tachygraph. The measured parameters were allowed from 30 to 90 minutes to stabilize before the administration of test compound.
(§3) Test compounds were administered either by oral gavage using a curved, bulbed oral dosing cannula, or by intravenous administration via the jugular vein indwelling catheter. Rats dosed orally were fasted overnight before dosing, with water available ad libitum. Because the heart rate responses following intravenous administration of test compound rapidly returned to baseline, more than one dose of test compound could be administered to each rat. However, the responses to oral administration of test compounds were of a prolonged duration and therefore only a single dose could be administered to each rat.
A comparison of the area under the bradycardia vs. time curve (AUC) following intravenous administration with the AUC following oral administration was used as a measure of oral bioavailability.

adenosine A1 receptor [2] = biological target: T1, adenosine A1 receptor (Rattus norvegicus, UniProt P25099); assay: Negative inotropic response in electrically stimulated rat isolated left atria (isoproterenol-stimulated); set-up: from tissue; host or cells: whole animal (conscious Sprague-Dawley rats); conditions: plateau negative inotropic response, 1 Hz, isoproterenol 10^−8 M
T1 sequence (P25099 1-326): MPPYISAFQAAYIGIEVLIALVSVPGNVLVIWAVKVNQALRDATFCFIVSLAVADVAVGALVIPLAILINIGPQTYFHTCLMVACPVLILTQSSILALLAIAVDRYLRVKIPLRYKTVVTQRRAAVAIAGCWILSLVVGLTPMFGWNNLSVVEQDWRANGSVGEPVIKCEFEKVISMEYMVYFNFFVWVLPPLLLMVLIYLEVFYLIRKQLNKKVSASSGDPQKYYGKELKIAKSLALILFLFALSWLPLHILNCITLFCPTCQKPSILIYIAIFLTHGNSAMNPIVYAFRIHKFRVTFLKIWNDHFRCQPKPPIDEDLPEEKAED
Description: as §1
Male Sprague-Dawley rats weighing 200-350 grams were sacrificed and the hearts rapidly removed and placed in a warmed Krebs-Henseleit buffer solution. The left atria were dissected free from the hearts and suspended in 30 mL jacketed isolated organ baths filled with Krebs-Henseleit buffer, oxygenated with 95% O2/5% CO2 and maintained at 37° C. Tissues were connected to a force displacement transducer under a resting tension of 1 gram. Atria were stimulated electrically at 1 Hz, 1 msec duration and supramaximal voltage to produce regular contractions of tissue.
Adenosine A1 agonists were added to the baths at increasing cumulative concentrations until a maximal decrease in the force of contraction was obtained. Because adenosine A1 agonists have only a small direct negative inotropic action in rat atria, it was necessary to stimulate β-adrenergic receptors to produce positive inotropy in order to maximize the negative intropic response and thereby facilitate measurement. Under these conditions, adenosine A1 agonists acting at A1 receptors indirectly reduce the β-adrenergic mediated positive inotropy. Accordingly, the β-adrenergic agonist isoproterenol (10^−8 M) was added to the organ baths approximately 15 minutes before the addition of the adenosine A1 agonist.

adenosine A1 receptor [3] = biological target: T1, adenosine A1 receptor; assay: Peak bradycardia after bolus intravenous injection in conscious rats; assay type: in vivo; set-up: from tissue; host or cells: whole animal (conscious Sprague-Dawley rats); conditions: bolus intravenous injections
Description: as §1, §2, §3

Compound: O=C(NCCO)[C@H]1O[C@@H](n2cnc3c(NC4CCCC4)ncnc32)[C@H](O)[C@@H]1O [B]
bioavailability [1]: 8.4%
EC50 (adenosine A1 receptor [2]): 11.2 nM
ED50 (adenosine A1 receptor [3]; rat, read-out: ED50): 0.0074 µmol/kg

Compound: O=C(NC1CC1)[C@H]1O[C@@H](n2cnc3c(NC4CCCC4)ncnc32)[C@H](O)[C@@H]1O [C, N^6-cyclopentyl-5′-(N-cyclopropyl)carboxamidoadenosine]
bioavailability [1]: 38%
EC50 (adenosine A1 receptor [2]): 3.8 nM
ED50 (adenosine A1 receptor [3]; rat, read-out: ED50): 0.0093 µmol/kg

Compound: O=C(NCCO)C1OC(n2cnc3c(NC4CC5CCC4C5)ncnc32)C(O)C1O (stereo not drawn) [H]
Oral Bioavailability [1]: 2.3%
EC50 (adenosine A1 receptor [2]): 3.8 nM
ED50 (adenosine A1 receptor [3]): 0.0034 µmol/kg

Compound: CCNC(=O)[C@H]1O[C@@H](n2cnc3c(NC(CC)CC)ncnc32)[C@H](O)[C@@H]1O [I, N^6-(3-pentyl)-5′-(N-ethyl)carboxamidoadenosine]
bioavailability [1]: 20%
EC50 (adenosine A1 receptor [2]): 7.9 nM
ED50 (adenosine A1 receptor [3]; rat, read-out: ED50): 0.0079 µmol/kg

More lines, in order of falling EC50 (adenosine A1 receptor [2]), values ahead:

bioavailability [1]: 34%
EC50 (adenosine A1 receptor [2]): 72.4 nM
ED50 (adenosine A1 receptor [3]; rat, read-out: ED50): 0.363 µmol/kg
Compound: CC(C)(C)NC(=O)[C@H]1O[C@@H](n2cnc3c(NC4CCCC4)ncnc32)[C@H](O)[C@@H]1O [F, N^6-cyclopentyl-5′-(N-t-butyl)carboxamidoadenosine]

bioavailability [1]: 14%
EC50 (adenosine A1 receptor [2]): 25.1 nM
ED50 (adenosine A1 receptor [3]; rat, read-out: ED50): 0.0323 µmol/kg
Compound: CCCNC(=O)[C@H]1O[C@@H](n2cnc3c(NC4CCCC4)ncnc32)[C@H](O)[C@@H]1O [G]

bioavailability [1]: 9.9%
EC50 (adenosine A1 receptor [2]): 21.8 nM
ED50 (adenosine A1 receptor [3]; rat, read-out: ED50): 0.0083 µmol/kg
Compound: CCC(CC)Nc1ncnc2c1ncn2[C@@H]1O[C@H](C(=O)NCCO)[C@@H](O)[C@H]1O [J]

bioavailability [1]: 20%
EC50 (adenosine A1 receptor [2]): 19.1 nM
ED50 (adenosine A1 receptor [3]; rat, read-out: ED50): 0.0039 µmol/kg
Compound: CNC(=O)[C@H]1O[C@@H](n2cnc3c(NC4CCCC4)ncnc32)[C@H](O)[C@@H]1O [D, N^6-cyclopentyl-5′-(N-methyl)carboxamidoadenosine]

bioavailability [1]: 28%
EC50 (adenosine A1 receptor [2]): 11 nM
ED50 (adenosine A1 receptor [3]; rat, read-out: ED50): 0.0034 µmol/kg
Compound: CC(C)NC(=O)[C@H]1O[C@@H](n2cnc3c(NC4CCCC4)ncnc32)[C@H](O)[C@@H]1O [E]
